Assay results: PMC9849758, “Chemically diverse activity-based probes with unexpected inhibitory mechanisms targeting trypsin-like serine proteases” (Frontiers in Chemistry, 2023)

How the values were obtained:
Type in all cases: biochemical
[1] = target: T1, CatG (Homo sapiens, UniProt P08311); assay: Kinetic progress curves (kapp, mechanism); set-up: Cathepsin G (cathepsin G human neutrophil, Sigma-Aldrich); purchased Sigma-Aldrich; host or cells: human neutrophil; details: for CatG kapp: apparent second-order rate constant from progress curves, mean ± SD; for CatG mechanism of inhibition: defined by the progress curves: slow-binding (Rev.) or irreversible (Irrev.)
T1 sequence (P08311 21-255): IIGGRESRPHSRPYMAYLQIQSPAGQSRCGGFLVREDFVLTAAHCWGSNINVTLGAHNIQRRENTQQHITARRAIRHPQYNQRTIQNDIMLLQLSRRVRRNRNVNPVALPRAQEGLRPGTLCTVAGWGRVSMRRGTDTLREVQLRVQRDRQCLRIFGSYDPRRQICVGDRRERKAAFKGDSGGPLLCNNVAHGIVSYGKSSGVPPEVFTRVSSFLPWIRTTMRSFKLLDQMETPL
Procedure: (§1) Because the compounds described in this paper were previously described as irreversible inhibitors, the IC50 value is inversely correlated with the second-order rate constant of inactivation. For a simple pseudo-first-order inactivation process, the activity after incubation with inhibitor (vi) varies with the inhibitor concentration (i), as described in the following equation: vi=v0·e^−kit where v0 is the activity in the absence of an inhibitor, k is the second-order rate constant of inactivation, and t is the time. The inactivation rate constant was determined from the time course of inhibition.
(§2) Kinetic assays were performed in the following manner. The inhibitor was mixed with the substrate, and the buffer solution with the enzyme was added at the time zero. The progress curves show the release of pNA or AMC as a function of time. Initially, no inhibitor is bound to the enzyme, and the tangent to the progress curve (dA/dt) is proportional to the free enzyme concentration. The free enzyme concentration decreases over time due to inhibitor binding kinetics, as described above. Progress curves were recorded in pseudo-first-order conditions ([I]0>>[E]0) and with less than 10% conversion of the substrate during the entire time course. In these conditions, dA/dt decreases exponentially with time. The progress curves were fitted with the integrated rate equation with GraFit7 to yield a value for kobs, a pseudo-first-order rate constant. At=Ao+vs∙t+vi−vs∙1−e^−kobs∙t/kobs where At is the absorbance at time t, A0 is the absorbance at time zero, vi is the initial rate and vs is the velocity at the steady-state.
(§3) The apparent second-order rate constant (kapp) was calculated from the slope of the linear part of the plot of kobs vs. the inhibitor concentration ([I]0). In the case of competition between the inhibitor and the substrate, kapp is smaller than the “real” second-order rate constant k discussed above because a certain fraction of the enzyme is present as an enzyme-substrate complex. kapp depends on the substrate concentration used in the experiment, as described by [Lambeir et al. (1996)].
(§4) The apparent equilibrium constants were obtained from the following equations, vi/vo=1/1+I/K1; vS/vo=1/1+I/KI* where vi is the initial rate, vs is the steady-state velocity and vo is the uninhibited initial rate.

[2] = target: T2, β-tryptase (Homo sapiens, UniProt P20231); assay: Kinetic progress curves (kapp, K1, KI*, mechanism); set-up: purchased EnzoLife Sciences; details: for β-tryptase kapp: apparent second-order rate constant from progress curves; for β-tryptase kapp / Ki: mean ± SD; for β-tryptase mechanism of inhibition: defined by the progress curves: slow-binding (Rev.) or irreversible (Irrev.)
T2 sequence (P20231 31-275): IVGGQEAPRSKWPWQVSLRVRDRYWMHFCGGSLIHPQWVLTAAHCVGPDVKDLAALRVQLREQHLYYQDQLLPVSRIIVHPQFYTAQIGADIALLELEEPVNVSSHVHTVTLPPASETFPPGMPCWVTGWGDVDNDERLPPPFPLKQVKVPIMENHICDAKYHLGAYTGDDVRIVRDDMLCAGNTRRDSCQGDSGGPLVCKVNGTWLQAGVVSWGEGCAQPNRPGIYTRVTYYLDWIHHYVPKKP
Procedure: as §1, §2, §3, §4

[3] = target: T2, β-tryptase; assay: Jump dilution, determination of inhibition type; set-up: purchased EnzoLife Sciences; details: inhibitor at 10 times IC50, 15 min, diluted 10-fold or 100-fold; Rev./Irrev.
Procedure: The dissociation of the enzyme-inhibitor complex was monitored by substrate hydrolysis over time ([Joossens et al., 2006]).
Because ABPs are designed to be irreversible serine protease inhibitors, the IC50 is exclusively used as a first discriminatory evaluation. When an inhibitor is irreversible, its IC50 value not only depends on the substrate and enzyme concentration but also on the time of incubation with the enzyme before the reaction is started by adding the substrate. […] The progress curve in the presence of an irreversible inhibitor will show final velocities equal to zero (Figure 6C). In contrast, for a reversible inhibitor, progress curves have a non-zero final steady-state velocity (Figure 6A) ([McWhirter, 2021]). To corroborate the inhibitory mechanism of the compounds, jump-dilution assays were performed. These use an inhibitor concentration of 10-fold the IC50 for the incubation, and a posteriori, the reaction mixture is diluted 10-fold or 100-fold before adding the substrate. In the case of an irreversible inhibitor, enzymatic activity is not regained (Figure 6D), whereas, in the case of a reversible compound, a slow release of the inhibitor and a gradual increase of the enzymatic activity rate is observed (Figure 6B) ([Copeland, 2013]; [McWhirter, 2021]). The jump-dilution assays confirmed the behavior described by the progress curves.
2.2.2 Jump dilution results
Supplementary Table 2. Jump dilution of selected alkyne and desthiobiotin probes against a panel of trypsin-like serine proteases. […]
# R R DtBa 3 tryptase Thrombin uPA CatG
32b H Alk Irrev. Irrev. Rev. Irrev. Rev.
45b DtB Irrev. Irrev. Rev. N.D. N.D.
33b Alk Irrev. Irrev. Rev. Irrev. Rev.
46b Cl DtB Irrev. Irrev. Rev. N.D. N.D.
34b H Alk Rev. Rev. Rev. Irrev. Rev.
50b DtB Rev. Rev. Rev. Irrev. Rev.
35b Alk Rev. Rev. Rev. Irrev. Rev.
52b NHCOMe DtB Rev. Rev. Rev. Irrev. Rev.
36b Alk Rev. Rev. Rev. Irrev. Rev.
54b Cl DtB Rev. Rev. Rev. Irrev. Rev.
37b Alk Irrev. Irrev. N.D. Irrev. Irrev.
55b H DtB Irrev. Irrev. N.D. Irrev. Irrev.
38b Alk Irrev. Irrev. N.D. Irrev. Irrev.
56b NHCOMe DtB Irrev. Irrev. N.D. Irrev. Irrev.
39b Alk Irrev. Irrev. N.D. Irrev. Rev.
57b Cl DtB Irrev. Irrev. N.D. Irrev. Rev.
41b H Alk Irrev. Irrev. Irrev. N.D. N.D.
31b Pro-Lys H Alk Irrev. Irrev. Irrev. Irrev. N.D. a Alk: ABP precursor bearing an alkyne; DtB: desthiobiotin probe b Panel of serine proteases abbreviations: urokinase plasminogen activator (uPA), cathepsin G (catG) N.D.: IC50 is greater than 10µM, and jump dilution was not performed
2.2.3 Progress curves and Jump dilution experiments
Kinetic assays were performed in the following manner. The inhibitor was mixed with the substrate, and the buffer solution with the enzyme was added at the time zero. The progress curves show the release of para-nitroaniline (pNA) or 7-amino-4-methyl coumarin (AMC) as a function of time.
To monitor the dissociation of the inhibitor-enzyme, aliquots of the enzyme were incubated at 37 °C without and with the inhibitor at a concentration 10 times higher than its IC 50. The enzyme […]
min, the aliquots were diluted 10-fold or 100-fold into the substrate concentration and assay buffer used for the IC50 determination. The dissociation of the enzyme-inhibitor complex was monitored by substrate hydrolysis over time. Blue lines represent the control where no inhibitor was present. Pink lines represent the assay with inhibitor.

SMILES	CatG kapp [1]	CatG mechanism of inhibition [1]	β-tryptase kapp [2]	β-tryptase mechanism of inhibition [2]	Ki ([2]; β-tryptase K1, apparent equilibrium constant of the first step of slow-binding)	Ki ([2]; β-tryptase KI*, apparent equilibrium constant of the overall process)	β-tryptase jump dilution result [3]
C#CCCCOC(=O)NC(Cc1ccc(NC(=N)N)cc1)P(=O)(Oc1ccc(NC(C)=O)cc1)Oc1ccc(NC(C)=O)cc1 (stereo not shown) [35b]	477 ± 67 M⁻¹ s⁻¹	Rev.	70 × 10^2 ± 582 M^−1 s^−1	Rev.	3200 ± 1800 nM	120 ± 10 nM	Rev.
C#CCCCOC(=O)NC(c1ccc(NC(=N)N)cc1)P(=O)(Oc1ccccc1)Oc1ccccc1.O=C(O)C(F)(F)F (stereo not shown) [37b, Pent-4-yn-1-yl ((diphenoxyphosphoryl)(4-guanidinophenyl)methyl)carbamate trifluoroacetate salt]	582 ± 2 M⁻¹ s⁻¹	Irrev.	375 ± 34 M⁻¹ s⁻¹	Irrev.			Irrev.
C#CCCCOC(=O)NC(CCCNC(=N)N)P(=O)(Oc1ccccc1)Oc1ccccc1 (stereo not shown) [32b]		* ^d Rev.	41 ± 5 M⁻¹ s⁻¹	Irrev.			Irrev.
